# In patent publication US20180117110A1, “METHOD OF TREATING CANCER” (THE WALTER AND ELIZA HALL INSTITUTE OF MEDICAL RESEARCH, priority 2014, published 2018):
# Legend:
# [1] = system: human AML patient samples; assay: Response of human AML patient samples to Birinapant in vitro; format: cell-based
# [2] = system: advanced solid tumours and lymphoma; conditions: intravenous administration, Phase I; cited from earlier work
# [3] = system: Bone Marrow Derived Macrophages (BMDM); assay: BMDM cell viability (CellTiter-Glo) after SMAC mimetic Compound A ± p38 or MK2 inhibitor; format: cell-based, mouse; conditions: inhibitor 30 min then 500 nM Compound A, 24 h, dose dependent (FIG. 1C)
# Protocol: FIG. 1: p38 inhibitors increase TNFα production and cell death induced by SMAC mimetics. A. Bone Marrow Derived Macrophages (BMDM) were pretreated ±1 μM of the indicated p38 inhibitors for 30 min then treated with 500 nM of SMAC mimetic Compound A (CompA) for 24 h. TNFα production was measured by ELISA of supernatants. B. BMDM were pretreated 500 nM of SMAC mimetic Compound A, GT13072 or birinapant ±1 μM of LY2228820. TNFα production was measured by ELISA of supernatants. N=3 biological repeats and error bars are SEM. C. BMDM were pretreated ± the indicated dose of MK2 inhibitor PF-3644022 and the p38 inhibitor LY2228820, VX-702, TAK-715 or VX-745 for 30 min then treated with 500 nM of SMAC mimetic Compound A. Cell viability was measured after 24 h of treatment using CellTiter-Glo® (CTG) reagent. N=3 biological repeats and error bars are SEM.
# BMDMs from C56/B16, p38α^LysMCre or Mk2^−/− were cultured for 6 days in DMEM+10% FBS (v/v)+20% L929 mouse fibroblasts (a source of macrophage colony stimulating factor), plated and assayed the following day. BMDMs cells were seeded and assayed in the presence of L929 conditioned medium. AML cells were cultured in IMDM +10% FBS (v/v)+2.5 ng/ml of IL-3. NCI-H929 cells were cultured in RPMI+10% FBS (v/v). Cell suspension from breast ER+ patient derived tumours was cultured in mammosphere media. After treatment with SMAC mimetic with or without kinases inhibitors cell viability was measured by staining with propidium iodide (2 μg/mL) or by using CellTiter-Glo® (Promega).
# [4] = system: Bone Marrow Derived Macrophages (BMDM); assay: TNFα production by ELISA of supernatants of BMDM treated with SMAC mimetic ± p38 inhibitors (kinase inhibitors screen); format: cell-based, mouse; conditions: 500 nM SMAC mimetic ± 1 μM LY2228820 (FIG. 1B)
# Protocol: FIG. 1: p38 inhibitors increase TNFα production and cell death induced by SMAC mimetics. A. Bone Marrow Derived Macrophages (BMDM) were pretreated ±1 μM of the indicated p38 inhibitors for 30 min then treated with 500 nM of SMAC mimetic Compound A (CompA) for 24 h. TNFα production was measured by ELISA of supernatants. B. BMDM were pretreated 500 nM of SMAC mimetic Compound A, GT13072 or birinapant ±1 μM of LY2228820. TNFα production was measured by ELISA of supernatants. N=3 biological repeats and error bars are SEM. C. BMDM were pretreated ± the indicated dose of MK2 inhibitor PF-3644022 and the p38 inhibitor LY2228820, VX-702, TAK-715 or VX-745 for 30 min then treated with 500 nM of SMAC mimetic Compound A. Cell viability was measured after 24 h of treatment using CellTiter-Glo® (CTG) reagent. N=3 biological repeats and error bars are SEM. BMDMs from C56/B16, p38α^LysMCre or Mk2^−/− were cultured for 6 days in DMEM+10% FBS (v/v)+20% L929 mouse fibroblasts (a source of macrophage colony stimulating factor), plated and assayed the following day. BMDMs cells were seeded and assayed in the presence of L929 conditioned medium. AML cells were cultured in IMDM +10% FBS (v/v)+2.5 ng/ml of IL-3. […] After treatment with SMAC mimetic with or without kinases inhibitors cell viability was measured by staining with propidium iodide (2 μg/mL) or by using CellTiter-Glo® (Promega). […]
# [5] = system: C57BL6 mice; assay: Tolerability of SMAC mimetic plus p38 inhibitor in non tumour-bearing mice; format: in vivo; conditions: 5 mg/kg GT13072 + 15 mg/kg LY2228820 i.p. (FIG. 7C)
# Protocol: FIG. 7: Mice tolerate administration of birinapant plus p38 inhibitor. A. Mononuclear cells isolated from healthy donor by Ficoll sedimentation were treated for 48 h with indicated drugs. CD34^+ cell death was measured by staining with PI and flow cytometry. For each donor sample, graphs show mean of at least n=2 technical replicates across n=2-5 independent experiments. B and C. C57BL/6 mice were intra-peritoneally injected with vehicle (captisol 6%) or birinapant (B) or GT13072 (C) or LY2228820 or combination of LY2228820 and SM at indicated concentration. Mice received 8 injections twice a week over 4 weeks. Mice were euthanised 2 weeks after the treatment stopped. Graphs show organs, body weights and blood cell populations with 6 mice/group (B), 4 mice/group (C). Error bars are SEM.
# To assess the safety of SMAC mimetic plus p38 inhibitor C57BL6 mice were injected by intra-peritoneal route twice a week for 4 weeks with either vehicle (6% Captisol) or 15 mg/kg of LY222820 or 5 mg/kg birinapant ±15 mg/kg LY2228820, or 10 mg/kg birinapant±15 mg/kg LY2228820. Another cohort received either vehicle or 5 mg/kg of GT13072, or 15 mg/kg of LY222820 or combination.
# 200 μL of blood was collected from the retro-orbital plexus into tubes containing potassium ethylenediaminetetraacetic acid (Sarstedt) and analyzed in an Advia 2120 automated hematologic analyzer (Bayer).
# [6] = system: low- and intermediate-1-risk Myelodysplastic syndromes; conditions: oral administration, Phase I/II; cited from earlier work
smiles,measurement,setting,value
CC[C@H](NC(=O)[C@H](C)NC)C(=O)N1C[C@@H](O)C[C@H]1Cc1c(-c2[nH]c3cc(F)ccc3c2C[C@@H]2C[C@H](O)CN2C(=O)[C@H](CC)NC(=O)[C@H](C)NC)[nH]c2cc(F)ccc12 [Birinapant],response of human AML patient samples to single agent treatment,[1],some human AML patient samples did not respond
same,anti-tumour activity in patients,[2],evidence of anti-tumour activity
same,tolerability in patients,[2],well tolerated with no dose-limiting toxicities
Cc1ccc(-c2ccc3c(ccc4sc5c(c43)NC[C@@H](C)NC5=O)n2)cn1 [PF-3644022],cell death induced by SMAC mimetics,[3],dramatically increased cell death
CC(C)(C)Cn1c(N)nc2ccc(-c3[nH]c(C(C)(C)C)nc3-c3ccc(F)cc3)nc21 [LY2228820],"TNF production of three different smac-mimetics (CompA, GT13072 and birinapant)",[4],increased TNF production
same,cell death induced by SMAC mimetics,[3],dramatically increased cell death
same,effect of LY2228820 on populations of white blood cells (ADVIA analysis),[5],nor affect the populations of white blood cells
same,effect of LY2228820 on the splenomegaly induced by GT13072,[5],did not even exacerbate the splenomegaly
O=c1ncn2nc(Sc3ccc(F)cc3F)ccc2c1-c1c(Cl)cccc1Cl [VX-745],cell death induced by SMAC mimetics,[3],dramatically increased cell death
CCc1nc(-c2cccc(C)c2)c(-c2ccnc(NC(=O)c3ccccc3)c2)s1 [TAK-715],cell death induced by SMAC mimetics,[3],dramatically increased cell death
NC(=O)c1ccc(N(C(N)=O)c2c(F)cccc2F)nc1-c1ccc(F)cc1F [VX-702],cell death induced by SMAC mimetics,[3],dramatically increased cell death
C[C@@H]1CN(Cc2ccc(F)cc2)[C@@H](C)CN1C(=O)c1cc2c(C(=O)C(=O)N(C)C)cn(C)c2cc1Cl [Talmapimod],complete remission,[6],only one patient achieved a complete remission
same,tolerability in patients,[6],well tolerated
